pIC50: −log10 of the molar value.
What was measured:
Format in all cases: biochemical
Pim-1 = Pim-1 (Homo sapiens (Human), UniProt P11309); test: Pim-1 kinase assay; settings: 1 mM ATP; read-out: Pim1 IC50
Description: Supplementation of the STOP buffer with beads and stopping the reactions were done under reduced light. Prior to the stopping reactions STOP buffer with beads was preincubated for 1 h in the dark at room temperature. After stopping the reactions, plates were incubated for 1 h in the dark at room temperature before reading on a PHERAstar FS plate reader (BMG Labtech) under reduced light.

Pim-3 = Pim-3 (Homo sapiens (Human), UniProt Q86V86); test: Pim-3 kinase assay; settings: 1 mM ATP; read-out: Pim3 IC50
Description: Pim-1 and Pim-3 kinase assays-20 μL reactions were run in white 384 well polystyrene plates dotted with 0.8 μL compound/DMSO in the assay buffer (50 mM Tris, pH 7.5, 0.01% Tween-20, 5 mM mgCl2, 0.01% BSA, 5 mM DTT), containing […] Biotin-labeled BAD peptide substrate (AnaSpec 62269), 1 mM ATP, and 2.5 pM (Pim-1, Invitrogen PV3503) or 1.25 pM (Pim-3, Millipore 14-738) enzyme for 1 h at 25° C. Reactions were stopped by addition of 10 μL STOP Buffer (150 mM Tris, pH=7.5, 150 mM NaCl, 75 mM EDTA, 0.01% Tween-20, 0.3% BSA,) supplemented with Phospho-Bad (Ser112) Antibody (Cell Signaling 9291) diluted 666-fold, and Streptavidin donor beads (PerkinElmer 6760002) along with Protein-A acceptor beads (PerkinElmer 6760137) at 15 μg/mL each. Supplementation of the STOP buffer with beads and stopping the reactions were done under reduced light. Prior to the stopping reactions STOP buffer with beads was preincubated for 1 h in the dark at room temperature. After stopping the reactions, plates were incubated for 1 h in the dark at room temperature before reading on a PHERAstar FS plate reader (BMG Labtech) under reduced light.

Pim-2 = Pim-2 (Homo sapiens (Human), UniProt Q9P1W9); test: Pim-2 kinase assay; settings: 1 mM ATP; read-out: Pim2 IC50
Pim-2, sequence (Q9P1W9 whole entry): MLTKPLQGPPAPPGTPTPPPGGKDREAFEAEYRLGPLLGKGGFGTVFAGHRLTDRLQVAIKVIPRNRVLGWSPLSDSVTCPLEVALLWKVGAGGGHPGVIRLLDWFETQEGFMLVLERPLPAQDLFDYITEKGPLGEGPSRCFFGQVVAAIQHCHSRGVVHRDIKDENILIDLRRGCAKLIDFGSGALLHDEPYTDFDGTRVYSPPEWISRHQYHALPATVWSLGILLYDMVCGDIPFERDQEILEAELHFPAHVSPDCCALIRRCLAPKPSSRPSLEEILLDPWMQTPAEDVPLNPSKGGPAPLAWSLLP
Description: Pim-2 kinase assay—20 μL reactions were run in white 384 well polystyrene plates dotted with 0.8 μL compound/DMSO in the assay buffer (50 mM Tris, pH 7.5, 0.01% Tween-20, 5 mM mgCl2, 0.01% BSA, 5 mM DTT), containing […] Fluorescein-labeled CREBtide peptide substrate (Invitrogen PV3508), 1 mM ATP, and 1 nM enzyme (Invitrogen PV3649) for 2 h at 25° C. Reactions were stopped by addition of 10 μL TR-FRET Dilution Buffer (Invitrogen PV3574) with 30 mM EDTA and 1.5 nM LanthaScreen Tb-CREB pSer133 antibody (Invitrogen PV3566). After 30 min. incubation at room temperature, plates were read on a PHERAstar FS plate reader (BMG Labtech).

Pim-1, sequence (P11309 whole entry): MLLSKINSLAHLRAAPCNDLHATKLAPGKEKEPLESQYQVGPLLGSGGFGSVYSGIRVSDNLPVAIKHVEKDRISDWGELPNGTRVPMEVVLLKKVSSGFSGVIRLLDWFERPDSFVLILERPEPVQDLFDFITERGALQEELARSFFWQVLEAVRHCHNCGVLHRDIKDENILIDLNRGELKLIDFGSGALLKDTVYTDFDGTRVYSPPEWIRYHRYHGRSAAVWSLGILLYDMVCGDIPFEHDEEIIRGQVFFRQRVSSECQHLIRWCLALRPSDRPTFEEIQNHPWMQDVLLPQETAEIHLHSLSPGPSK

Structure (SMILES)	pIC50 (Pim-1)	pIC50 (Pim-3)	pIC50 (Pim-2)
CNCc1cc(F)c(-c2nc(CNc3cnccc3N3C[C@@H](N)[C@H](O)[C@@H](C)C3)ccc2F)c(F)c1 [Example 40, (3R,4R,5S)-3-Amino-1-(3-(((6-(2,6-difluoro-4-((methylamino)methyl)phenyl)-5-fluoropyridin-2-yl)methyl)amino)pyridin-4-yl)-5-methylpiperidin-4-ol]	> 8.00	≥ 8.00	6.00 to 7.00
C[C@H]1CN(c2ccncc2NCc2ccc(F)c(-c3c(F)cc(CN4CCC4)cc3F)n2)C[C@@H](N)[C@@H]1O [Example 41, (3R,4R,5S)-3-Amino-1-(3-(((6-(4-(azetidin-1-ylmethyl)-2,6-difluorophenyl)-5-fluoropyridin-2-yl)methyl)amino)pyridin-4-yl)-5-methylpiperidin-4-ol]	> 8.00	≥ 8.00	6.00 to 7.00
C[C@H]1CN(c2ccncc2NCc2ccc(F)c(-c3c(F)cc(CN4CC[C@@H](O)C4)cc3F)n2)C[C@@H](N)[C@@H]1O [Example 42, (3R,4R,5S)-3-Amino-1-(3-(((6-(2,6-difluoro-4-(((R)-3-hydroxypyrrolidin-1-yl)methyl)phenyl)-5-fluoropyridin-2-yl)methyl)amino)pyridin-4-yl)-5-methylpiperidin-4-ol]	> 8.00	≥ 8.00	≥ 7.00
C[C@H]1CN(c2ccncc2NCc2ccc(F)c(-c3c(F)cc(CN4CC[C@H](O)C4)cc3F)n2)C[C@@H](N)[C@@H]1O [Example 43, (3R,4R,5S)-3-Amino-1-(3-(((6-(2,6-difluoro-4-(((S)-3-hydroxypyrrolidin-1-yl)methyl)phenyl)-5-fluoropyridin-2-yl)methyl)amino)pyridin-4-yl)-5-methylpiperidin-4-ol]	> 8.00	≥ 8.00	≥ 7.00
C[C@H]1CN(c2ccncc2NCc2ccc(F)c(-c3c(F)cc(CN4CC[C@@H](C#N)C4)cc3F)n2)C[C@@H](N)[C@@H]1O [Example 44, (R)-1-(4-(6-((4-((3R,4R,5S)-3-Amino-4-hydroxy-5-methylpiperidin-1-yl)pyridin-3-ylamino)methyl)-3-fluoropyridin-2-yl)-3,5-difluorobenzyl)pyrrolidine-3-carbonitrile]	> 8.00	≥ 8.00	≥ 7.00
C[C@H]1CN(c2ccncc2NCc2ccc(F)c(-c3c(F)cc(CN4CC[C@H](C#N)C4)cc3F)n2)C[C@@H](N)[C@@H]1O [Example 45, (S)-1-(4-(6-((4-((3R,4R,5S)-3-Amino-4-hydroxy-5-methylpiperidin-1-yl)pyridin-3-ylamino)methyl)-3-fluoropyridin-2-yl)-3,5-difluorobenzyl)pyrrolidine-3-carbonitrile]	> 8.00	≥ 8.00	≥ 7.00
C[C@H]1CN(c2ccncc2NCc2ccc(F)c(-c3c(F)cc(CN4CC[C@@H](F)C4)cc3F)n2)C[C@@H](N)[C@@H]1O [Example 46, (3R,4R,5S)-3-amino-1-(3-(((6-(2,6-difluoro-4-(((R)-3-fluoropyrrolidin-1-yl)methyl)phenyl)-5-fluoropyridin-2-yl)methyl)amino)pyridin-4-yl)-5-methylpiperidin-4-ol]	> 8.00	≥ 8.00	≥ 7.00
C[C@H]1CN(c2ccncc2NCc2ccc(F)c(-c3c(F)cc(CN4CC[C@H](F)C4)cc3F)n2)C[C@@H](N)[C@@H]1O [Example 47, (3R,4R,5S)-3-amino-1-(3-(((6-(2,6-difluoro-4-(((S)-3-fluoropyrrolidin-1-yl)methyl)phenyl)-5-fluoropyridin-2-yl)methyl)amino)pyridin-4-yl)-5-methylpiperidin-4-ol]	> 8.00	≥ 8.00	≥ 7.00
C[C@@H]1C[C@H](N)CN(c2ccncc2NCc2ccc(F)c(-c3c(F)cc(CN4CCOCC4)cc3F)n2)C1 [Example 48, 4-[(3S,5R)-3-Amino-5-methylpiperidin-1-yl]-N-({6-[2,6-difluoro-4-(morpholin-4-ylmethyl)phenyl]-5-fluoropyridin-2-yl}methyl)pyridin-3-amine]	> 8.00	≥ 8.00	≥ 7.00
CNCc1cc(F)c(-c2nc(CNc3cnccc3N3C[C@H](C)C[C@H](N)C3)ccc2F)c(F)c1 [Example 49, 4-((3S,5R)-3-Amino-5-methylpiperidin-1-yl)-N-((6-(2,6-difluoro-4-((methylamino)methyl)phenyl)-5-fluoropyridin-2-yl)methyl)pyridin-3-amine]	> 8.00	≥ 8.00	6.00 to 7.00
C[C@@H]1C[C@H](N)CN(c2ccncc2NCc2ccc(F)c(-c3c(F)cc(CN4CCC4)cc3F)n2)C1 [Example 50, 4-((3S,5R)-3-Amino-5-methylpiperidin-1-yl)-N-((6-(4-(azetidin-1-ylmethyl)-2,6-difluorophenyl)-5-fluoropyridin-2-yl)methyl)pyridin-3-amine]	> 8.00	≥ 8.00	6.00 to 7.00
C[C@@H]1C[C@H](N)CN(c2ccncc2NCc2ccc(F)c(-c3c(F)cc(CN4CC[C@@H](O)C4)cc3F)n2)C1 [Example 51, (R)-1-(4-(6-((4-((3S,5R)-3-Amino-5-methylpiperidin-1-yl)pyridin-3-ylamino)methyl)-3-fluoropyridin-2-yl)-3,5-difluorobenzyl)pyrrolidin-3-ol]	> 8.00	≥ 8.00	≥ 7.00
C[C@@H]1C[C@H](N)CN(c2ccncc2NCc2ccc(F)c(-c3c(F)cc(CN4CC[C@H](O)C4)cc3F)n2)C1 [Example 52, (S)-1-(4-(6-((4-((3S,5R)-3-Amino-5-methylpiperidin-1-yl)pyridin-3-ylamino)methyl)-3-fluoropyridin-2-yl)-3,5-difluorobenzyl)pyrrolidin-3-ol]	> 8.00	≥ 8.00	≥ 7.00
C[C@@H]1C[C@H](N)CN(c2ccncc2NCc2ccc(F)c(-c3c(F)cc(CN4CC[C@@H](C#N)C4)cc3F)n2)C1 [Example 53, (R)-1-(4-(6-((4-((3S,5R)-3-amino-5-methylpiperidin-1-yl)pyridin-3-ylamino)methyl)-3-fluoropyridin-2-yl)-3,5-difluorobenzyl)pyrrolidine-3-carbonitrile]	> 8.00	≥ 8.00	≥ 7.00
C[C@@H]1C[C@H](N)CN(c2ccncc2NCc2ccc(F)c(-c3c(F)cc(CN4CC[C@H](C#N)C4)cc3F)n2)C1 [Example 54, (S)-1-(4-(6-((4-((3S,5R)-3-amino-5-methylpiperidin-1-yl)pyridin-3-ylamino)methyl)-3-fluoropyridin-2-yl)-3,5-difluorobenzyl)pyrrolidine-3-carbonitrile]	> 8.00	≥ 8.00	≥ 7.00
C[C@@H]1C[C@H](N)CN(c2ccncc2NCc2ccc(F)c(-c3c(F)cc(CN4CC[C@@H](F)C4)cc3F)n2)C1 [Example 55, 4-((3S,5R)-3-amino-5-methylpiperidin-1-yl)-N-((6-(2,6-difluoro-4-(((R)-3-fluoropyrrolidin-1-yl)methyl)phenyl)-5-fluoropyridin-2-yl)methyl)pyridin-3-amine]	> 8.00	≥ 8.00	≥ 7.00
C[C@@H]1C[C@H](N)CN(c2ccncc2NCc2ccc(F)c(-c3c(F)cc(CN4CC[C@H](F)C4)cc3F)n2)C1 [Example 56, 4-((3S,5R)-3-amino-5-methylpiperidin-1-yl)-N-((6-(2,6-difluoro-4-(((S)-3-fluoropyrrolidin-1-yl)methyl)phenyl)-5-fluoropyridin-2-yl)methyl)pyridin-3-amine]	> 8.00	≥ 8.00	≥ 7.00
C[C@H]1CN(c2ccncc2NCc2ccc(F)c(C3=CCCCC3)n2)C[C@@H](N)[C@@H]1O [Example 57]	> 8.00	≥ 8.00	6.00 to 7.00
C[C@@H]1C[C@H](N)CN(c2ccncc2NCc2ccc(F)c(C3CCCCC3)n2)C1 [Example 58, 4-[(3S,5R)-3-Amino-5-methylpiperidin-1-yl]-N-[(6-cyclohexyl-5-fluoropyridin-2-yl)methyl]pyridin-3-amine]	> 8.00	7.30 to 8.00	6.00 to 7.00

— patent US9802918B2, “Pyridineamine compounds useful as Pim kinase inhibitors” (Incyte Corporation, priority 2015, dated 2017)
